Data on 9 compounds can be found in US10836763B2, “5 to 7 membered heterocyclic amides as JAK inhibitors” (priority 2018, dated 2020).

Test [1] concerns the target JAK1 (Homo sapiens (Human), UniProt P23458). In words: Biochemical JAK kinase assay (LanthaScreen), JAK1. How it is done:
(§1) Assay 1: Biochemical JAK Kinase Assays
(§2) A panel of four LanthaScreen JAK biochemical assays (JAK1, 2, 3 and Tyk2) were carried in a common kinase reaction buffer (50 mM HEPES, pH 7.5, 0.01% Brij-35, 10 mM MgCl2, and 1 mM EGTA). Recombinant GST-tagged JAK enzymes and a GFP-tagged STAT1 peptide substrate were obtained from Life Technologies.
(§3) Serially diluted compounds were pre-incubated with each of the four JAK enzymes and the substrate in white 384-well microplates (Corning) at ambient temperature for 1 h. ATP was subsequently added to initiate the kinase reactions in 10 μL total volume, with 1% DMSO. […] Kinase reactions were allowed to proceed for 1 hour at ambient temperature before a 10 μL preparation of EDTA (10 mM final concentration) and Tb-anti-pSTAT1 (pTyr701) antibody (Life Technologies, 2 nM final concentration) in TR-FRET dilution buffer (Life Technologies) was added. The plates were allowed to incubate at ambient temperature for 1 h before being read on the EnVision reader (Perkin Elmer). Emission ratio signals (520 nm/495 nm) were recorded and utilized to calculate the percent inhibition values based on DMSO and background controls.
(§4) For dose-response analysis, percent inhibition data were plotted vs. compound concentrations, and IC50 values were determined from a 4-parameter robust fit model with the Prism software (GraphPad Software). Results were expressed as pIC50 (negative logarithm of IC50) and subsequently converted to pKi (negative logarithm of dissociation constant, Ki) using the Cheng-Prusoff equation.
(In general: Time-resolved FRET reads energy transfer from a long-lived donor to a nearby acceptor.)

In test [2] the test system is IL-2 stimulated STAT5 phosphorylation in Tall-1 human T cell line. In words: Inhibition of IL-2 stimulated pSTAT5 in Tall-1 T cells. In kind it is cell-based. To be noted: TALL-1, 0.5 h, read-out: Tall-1 pIC50 (converted). The procedure:
Assay 2: Inhibition of IL-2 Stimulated pSTAT5 in Tall-1 T Cells
The potency of test compounds for inhibition of interleukin-2 (IL-2) stimulated STAT5 phosphorylation was measured in the Tall-1 human T cell line (DSMZ) using AlphaLisa.
Phosphorylated STAT5 was measured via the AlphaLISA SureFire Ultra pSTAT5 (Tyr694/699) kit (PerkinElmer).
Compounds were serially diluted in DMSO and dispensed acoustically to empty wells. Assay media (phenol red-free DMEM (Life Technologies) supplemented with 10% FBS (ATCC)) was dispensed (4 μL/well) and plates shaken at 900 rpm for 10 mins. Cells were seeded at 45,000 cells/well in assay media (4 μL/well), and incubated at 37° C., 5% CO2 for 1 hour, followed by the addition of IL-2 (R&D Systems; final concentration 300 ng/mL) in pre-warmed assay media (4 μL) for 30 minutes. […] The lysate was shaken at 900 rpm for 10 minutes at room temperature (RT). Phosphorylated STAT5 was measured via the pSTAT5 AlphaLisa kit (PerkinElmer). Freshly prepared acceptor bead mixture was dispensed onto lysate (5 μL) under green filtered <100 lux light. Plates were shaken at 900 rpm for 2 mins, briefly spun down, and incubated for 2 hrs at RT in the dark. Donor beads were dispensed (5 μL) under green filtered <100 lux light. Plates were shaken at 900 rpm for 2 minutes, briefly spun down, and incubated overnight at RT in the dark. Luminescence was measured with excitation at 689 nm and emission at 570 nm using an EnVision plate reader (PerkinElmer) under green filtered <100 lux light.
To determine the inhibitory potency of test compounds in response to IL-2, the average emission intensity of beads bound to pSTAT5 was measured in a human T cell line. IC50 values were determined from analysis of the inhibition curves of signal intensity versus compound concentration. Data are expressed as pIC50 (negative decadic logarithm IC50) values (mean±standard deviation).

The target of test [3] is JAK2 (Homo sapiens (Human), UniProt O60674). In words: Biochemical JAK kinase assay (LanthaScreen), JAK2. How it is done: as §1, §2, §3, §4
The test system of test [4] is TSLP-evoked TARC release in human peripheral blood mononuclear cells. In words: Inhibition of TSLP-evoked TARC release in human peripheral blood mononuclear cells. In kind it is cell-based. To be noted: read-out: pIC50 ± st. dev., inhibition of TSLP-evoked TARC release (converted). The source says:
Assay 4: Inhibition of TSLP-Evoked TARC Release in Human Peripheral Blood Mononuclear Cells
Thymic stromal lymphopoietin (TSLP) and thymus and activation-regulated chemokine (TARC) are overexpressed in asthmatic airways, and correlate with disease severity. In the lungs, TSLP may be released by bronchial epithelial cells in response to allergens and viral infections. TSLP signals through an IL-7Rα/TSLPR heterodimer found in a broad range of tissues and cell types, including epithelial cells, endothelial cells, neutrophils, macrophages, and mast cells. The binding of TSLP to its receptor induces a conformational change that activates JAK1 and JAK2 to phosphorylate various transcription factors, including STAT3 and STAT5. In immune cells, this triggers a cascade of intracellular events that result in cell proliferation, anti-apoptosis, dendritic cell migration, and production of Th2 cytokines and chemokines. In peripheral blood mononuclear cells (PBMC), TSLP has a proinflammatory effect by activating myeloid dendritic cells to attract and stimulate T cells, a process mediated by the chemoattractant TARC.
The potencies of the test compounds were measured for inhibition of TARC release.
PBMC aliquots (previously isolated from whole blood and frozen in aliquots at −80° C.) from 3 to 5 donors were thawed at 37° C. and added dropwise to 40 mL pre-warmed, sterile-filtered, complete RPMI media in 50 mL Falcon tubes. Cells were pelleted and resuspended in complete media at 2.24×10^6 cells/mL. Cells were seeded at […] (190,000 cells) per well in a tissue culture treated 96-well flat bottom microplate. Cells were allowed to rest for 1 hour at 37° C. with 5% CO2.
Compounds were received as 10 mM stock solutions in DMSO. 3.7-fold serial dilutions were performed to generate 9 concentrations of test compound in DMSO at 300× the final assay test concentration. […] After the 1 hour rest period, 95 µL of 2× compound was added to each well of PBMC, for a final assay concentration range of 33.33 μM to […]. 95 μL of 0.2% DMSO in complete media was added to the untreated control wells. Cells were pre-treated with compound for 1 hour at 37° C. with 5% CO2 prior to stimulation.
Recombinant human TSLP protein was reconstituted at 10 μg/mL in sterile DPBS with 0.1% BSA and stored in aliquots at −20° C. Immediately prior to use, an aliquot was thawed and prepared at 20× the final assay concentration in complete media. 10 μL of 20×TSLP was added to each well of PBMC, for a final assay concentration of 10 ng/mL. 10 μL of complete media was added to the unstimulated control wells. Cells were stimulated in the presence of compound for 48 hours at 37° C. with 5% CO2.
Following stimulation, the cell culture supernatants were harvested and TARC levels were detected by enzyme-linked immunosorbent assay (ELISA), using Human CCL17/TARC Quantikine ELISA Kit (R&D Systems # DDN00) according to the manufacturer's instructions.
For dose response analysis, the log [test compound (M)] was plotted versus the percent response values for each donor, and IC50 values were determined using a nonlinear regression analysis with GraphPad Prism Software using the 4-parameter sigmoidal dose-response algorithm with variable slope. Data are expressed as mean pIC50 (negative decadic logarithm IC50) values calculated from pIC50 values of individual donors and rounded to one decimal place.

[5] abbreviates: ATP at Km 25 μM, pIC50 converted with Cheng-Prusoff.
[6] abbreviates: IL-2 300 ng/mL, 30 min, pSTAT5 AlphaLisa.
Setting [7] is: ATP at Km 3 μM, pIC50 converted with Cheng-Prusoff.
Setting [8] is: PBMC from 3 to 5 donors, TSLP 10 ng/mL, 48 hours, TARC ELISA.

Read-outs that look alike come from different tables or passages of the source.

JAK2, sequence (O60674 whole entry): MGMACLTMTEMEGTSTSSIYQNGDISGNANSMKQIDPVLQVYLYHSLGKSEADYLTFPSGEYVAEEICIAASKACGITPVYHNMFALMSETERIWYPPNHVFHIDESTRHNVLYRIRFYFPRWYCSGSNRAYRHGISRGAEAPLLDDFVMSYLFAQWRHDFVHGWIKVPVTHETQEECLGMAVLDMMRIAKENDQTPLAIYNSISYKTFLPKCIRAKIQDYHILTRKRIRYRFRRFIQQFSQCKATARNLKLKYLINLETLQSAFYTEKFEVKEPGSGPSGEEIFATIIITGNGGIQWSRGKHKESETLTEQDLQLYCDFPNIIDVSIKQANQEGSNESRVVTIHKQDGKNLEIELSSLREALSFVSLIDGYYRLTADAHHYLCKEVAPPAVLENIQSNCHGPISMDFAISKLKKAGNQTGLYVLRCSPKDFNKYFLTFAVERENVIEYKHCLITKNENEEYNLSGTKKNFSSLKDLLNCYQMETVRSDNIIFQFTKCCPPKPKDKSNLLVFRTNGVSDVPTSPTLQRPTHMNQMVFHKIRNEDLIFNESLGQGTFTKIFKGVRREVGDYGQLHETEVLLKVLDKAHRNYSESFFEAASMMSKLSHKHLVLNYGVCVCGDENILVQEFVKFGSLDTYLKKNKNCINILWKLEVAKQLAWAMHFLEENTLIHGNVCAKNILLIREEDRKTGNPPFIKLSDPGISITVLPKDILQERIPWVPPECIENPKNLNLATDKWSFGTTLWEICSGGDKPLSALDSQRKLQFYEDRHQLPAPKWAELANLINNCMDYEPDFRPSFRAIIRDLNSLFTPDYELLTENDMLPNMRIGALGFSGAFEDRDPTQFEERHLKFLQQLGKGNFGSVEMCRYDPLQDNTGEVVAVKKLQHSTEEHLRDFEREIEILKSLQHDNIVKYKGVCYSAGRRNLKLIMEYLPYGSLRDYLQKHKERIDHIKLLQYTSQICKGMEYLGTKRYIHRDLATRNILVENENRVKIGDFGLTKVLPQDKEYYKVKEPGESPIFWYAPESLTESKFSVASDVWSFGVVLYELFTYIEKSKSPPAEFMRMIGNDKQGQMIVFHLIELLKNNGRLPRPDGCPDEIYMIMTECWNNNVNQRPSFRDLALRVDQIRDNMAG
JAK1, sequence (P23458 whole entry): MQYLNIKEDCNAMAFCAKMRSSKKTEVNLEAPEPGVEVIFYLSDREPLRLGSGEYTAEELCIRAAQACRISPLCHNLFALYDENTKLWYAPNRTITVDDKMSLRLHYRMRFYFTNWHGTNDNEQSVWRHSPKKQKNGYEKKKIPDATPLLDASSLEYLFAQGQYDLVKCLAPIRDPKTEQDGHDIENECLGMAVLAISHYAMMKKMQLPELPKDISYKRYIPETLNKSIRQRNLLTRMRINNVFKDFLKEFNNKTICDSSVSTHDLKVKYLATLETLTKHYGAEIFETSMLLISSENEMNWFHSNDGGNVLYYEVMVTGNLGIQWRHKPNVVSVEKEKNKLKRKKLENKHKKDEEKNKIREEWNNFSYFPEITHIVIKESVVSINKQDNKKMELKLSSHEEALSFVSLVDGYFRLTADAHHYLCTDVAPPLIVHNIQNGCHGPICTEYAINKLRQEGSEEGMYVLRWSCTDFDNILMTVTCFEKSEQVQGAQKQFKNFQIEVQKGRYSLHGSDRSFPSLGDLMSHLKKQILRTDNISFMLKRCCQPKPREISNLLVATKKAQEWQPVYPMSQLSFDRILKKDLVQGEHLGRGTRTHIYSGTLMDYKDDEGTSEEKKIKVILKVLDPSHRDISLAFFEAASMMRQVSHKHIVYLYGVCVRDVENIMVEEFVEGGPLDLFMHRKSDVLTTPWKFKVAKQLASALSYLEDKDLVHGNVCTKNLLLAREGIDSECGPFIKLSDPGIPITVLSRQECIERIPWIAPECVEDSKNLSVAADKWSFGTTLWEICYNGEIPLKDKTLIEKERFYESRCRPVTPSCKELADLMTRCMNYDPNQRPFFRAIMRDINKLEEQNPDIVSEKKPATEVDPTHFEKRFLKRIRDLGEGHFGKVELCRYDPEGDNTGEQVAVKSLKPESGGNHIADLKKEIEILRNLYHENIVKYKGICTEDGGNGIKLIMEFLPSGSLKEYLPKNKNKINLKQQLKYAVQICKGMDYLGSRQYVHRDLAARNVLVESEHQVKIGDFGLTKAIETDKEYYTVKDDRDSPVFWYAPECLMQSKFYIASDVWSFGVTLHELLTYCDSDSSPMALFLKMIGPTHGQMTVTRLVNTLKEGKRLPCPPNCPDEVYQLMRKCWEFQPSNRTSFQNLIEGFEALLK

For `CCCN1Cc2[nH]c(-c3n[nH]c4cc(-c5ccc(O)cc5CC)ccc34)nc2C[C@H]1C(=O)N1CCN(CCO)CC1` [Compound 1, (S)-(2-(6-(2-ethyl-4-hydroxyphenyl)-1H-indazol-3-yl)-5-propyl-4,5,6,7-tetrahydro-3H-imidazo[4,5-c]pyridin-6-yl)(4-(2-hydroxyethyl)piperazin-1-yl)methanone], the “JAK1 pKi” value in test [1] (setting [5]) is recorded as 10.2. In addition, the results for the IC50 in test [2] (setting [6]) and in test [4] (setting [8]) were 1.58 nM and 79.4 nM, respectively. In addition, in test [3] (setting [7]), the “JAK2 pKi” value is 10.3.
In the same order, the values of `CCCN1Cc2[nH]c(-c3n[nH]c4cc(-c5ccc(O)cc5CC)ccc34)nc2C[C@H]1C(=O)N1C[C@@H]2C[C@H]1CN2C` [Compound 2, ((S)-2-(6-(2-ethyl-4-hydroxyphenyl)-1H-indazol-3-yl)-5-propyl-4,5,6,7-tetrahydro-3H-imidazo[4,5-c]pyridin-6-yl)((1S,4S)-5-methyl-2,5-diazabicyclo[2.2.1]heptan-2-yl)methanone] are 10.3, 3.98 nM, 158 nM and 10.2.
Turning to `CCc1cc(O)ccc1-c1ccc2c(-c3nc4c([nH]3)CN(C(C)C)[C@H](C(=O)N3CCCN(C)CC3)C4)n[nH]c2c1` [Compound 4, (S)-(2-(6-(2-ethyl-4-hydroxyphenyl)-1H-indazol-3-yl)-5-isopropyl-4,5,6,7-tetrahydro-3H-imidazo[4,5-c]pyridin-6-yl)(4-methyl-1,4-diazepan-1-yl)methanone], the “JAK1 pKi” value in test [1] is 10.1. The IC50 in test [2] is 2.51 nM; in test [4] (PBMC, 48 h), 158 nM. Also, the “JAK2 pKi” value in test [3] worked out at 10.4.
For `CCc1cc(O)ccc1-c1ccc2c(-c3nc4c([nH]3)CN(C)[C@H](C(=O)N3CCN(CCO)C[C@H]3C)C4)n[nH]c2c1` [Compound 5, ((S)-2-(6-(2-ethyl-4-hydroxyphenyl)-1H-indazol-3-yl)-5-methyl-4,5,6,7-tetrahydro-3H-imidazo[4,5-c]pyridin-6-yl)((R)-4-(2-hydroxyethyl)-2-methylpiperazin-1-yl)methanone], the “JAK1 pKi” value in test [1] was found to be 10.3. The IC50 in test [2] is 1.58 nM; in test [4] (PBMC, 48 h), 31.6 nM. In test [3], the “JAK2 pKi” value was 10.5.
With `CCc1cc(O)ccc1-c1ccc2c(-c3nc4c([nH]3)CN(C(C)C)[C@H](C(=O)N3CC[C@H](N(C)C)C3)C4)n[nH]c2c1` [Compound 6, ((S)-3-(dimethylamino)pyrrolidin-1-yl)((S)-2-(6-(2-ethyl-4-hydroxyphenyl)-1H-indazol-3-yl)-5-isopropyl-4,5,6,7-tetrahydro-3H-imidazo[4,5-c]pyridin-6-yl)methanone], the “JAK1 pKi” value in test [1] was 10.2. The IC50 in test [2] is 2 nM; in test [4] (PBMC, 48 h), 158 nM. Also, the “JAK2 pKi” value in test [3] worked out at 10.4.
`CCCN1Cc2[nH]c(-c3n[nH]c4cc(-c5cc(F)c(O)cc5CC)ccc34)nc2C[C@H]1C(=O)N1CCN(CCO)CC1` [Compound C-1, (S)-(2-(6-(2-ethyl-5-fluoro-4-hydroxyphenyl)-1H-indazol-3-yl)-5-propyl-4,5,6,7-tetrahydro-3H-imidazo[4,5-c]pyridin-6-yl)(4-(2-hydroxyethyl)piperazin-1-yl)methanone, reference compound]: the “JAK1 pKi” value in test [1] (setting [5]) is 10.2. The IC50 in test [2] (setting [6]) is 2 nM; in test [4] (setting [8]), 100 nM. In addition, in test [3] (setting [7]), the “JAK2 pKi” value turned out to be 10.5.
On to `CCCN1Cc2[nH]c(-c3n[nH]c4cc(-c5cc(F)c(O)cc5CC)ccc34)nc2C[C@H]1C(=O)N1C[C@@H]2C[C@H]1CN2C` [Compound C-2, ((S)-2-(6-(2-ethyl-5-fluoro-4-hydroxyphenyl)-1H-indazol-3-yl)-5-propyl-4,5,6,7-tetrahydro-3H-imidazo[4,5-c]pyridin-6-yl)((1S,4S)-5-methyl-2,5-diazabicyclo-[2.2.1]heptan-2-yl)methanone, reference compound], for which the “JAK1 pKi” value in test [1] (setting [5]) amounted to 10.3. Besides, the IC50 in test [2] (setting [6]) was 2.51 nM; in test [4] (setting [8]), 251 nM. Further, the “JAK2 pKi” value in test [3] (setting [7]) is given as 10.8.
As for `CCc1cc(O)c(F)cc1-c1ccc2c(-c3nc4c([nH]3)CN(C)[C@H](C(=O)N3CCN(C)C[C@@H]3C)C4)n[nH]c2c1` [Compound C-3, ((S)-2,4-dimethylpiperazin-1-yl)((S)-2-(6-(2-ethyl-5-fluoro-4-hydroxyphenyl)-1H-indazol-3-yl)-5-methyl-4,5,6,7-tetrahydro-3H-imidazo[4,5-c]pyridin-6-yl)methanone, reference compound], the IC50 was 2 nM in test [2] (setting [6]) and 100 nM in test [4] (setting [8]). The “JAK2 pKi” value in test [3] (setting [7]) turned out to be 10.5.
As to `CCc1cc(O)c(F)cc1-c1ccc2c(-c3nc4c([nH]3)CN(C(C)C)[C@H](C(=O)N3CCCN(C)CC3)C4)n[nH]c2c1` [Compound C-4, (S)-(2-(6-(2-ethyl-5-fluoro-4-hydroxyphenyl)-1H-indazol-3-yl)-5-isopropyl-4,5,6,7-tetrahydro-3H-imidazo[4,5-c]pyridin-6-yl)(4-methyl-1,4-diazepan-1-yl)methanone, reference compound], the “JAK1 pKi” value in test [1] (setting [5]) amounted to 10.0. For the same compound, the IC50 in test [2] (setting [6]) was 2 nM; in test [4] (setting [8]), 100 nM. For the same compound, the “JAK2 pKi” value in test [3] (setting [7]) came to 10.6.
